Activity calls are given as the source filed them.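 The calls were made as follows: active = compounds giving half or more protection of infected cells from virus-caused growth loss, again on retest; inactive = the rest.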
Test system: CEM cells HIV-1 protection, formazan growth assay
Assay: NCI AIDS Antiviral Assay
Conditions: for IC50: measured here: growth of uninfected CEM cells
Summary of the method: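 Category rules: moderately active means at least 50% protection on retest, and confirmed active means 100% protection reproducibly. The underlying data came from a formazan growth assay in HIV-1-infected CEM cells.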

Row | SMILES | EC50 [µM] | IC50 [µM] | outcome
1 | O=[N+]([O-])c1ccc(-c2csc(N=Nc3c(O)[nH]c4ccccc34)n2)cc1 | 141 | > 200 | –
2 | CCOC(=O)N1N=C(c2ccccc2)OC2(N3CCOCC3)CCC(C(C)(C)C)CC12 (stereo not given) | 30.2 | 31.6 | –
3 | CC1(C)c2ccccc2C(O)C12CCC(=O)CC2 (stereo not given) | > 200 | > 200 | –
4 | Cn1c(N)c(N=Nc2ccc(S(=O)(=O)Nc3ncccn3)cc2)c(=O)n(C)c1=O | > 200 | > 200 | –
5 | Cc1cc(C)nc(NS(=O)(=O)c2ccc(Nc3c4ccccc4nc4c(C(=O)Nc5ccc(S(=O)(=O)N=C(N)N)cc5)ccc(Cl)c34)cc2)n1 | > 93.3 | 69.2 | –
6 | O=C1OCC(CN2CCC(n3c(=O)[nH]c4ccccc43)CC2)=C1c1ccccc1 | > 200 | 30.9 | –
7 | CCOc1ccc(-c2nc(-c3oc4ccccc4c(=O)c3OC(C)=O)cs2)cc1 | > 200 | 112 | –
8 | CCOC(=O)c1c(/C=N\Nc2ccccc2)nc2ccccc2c1-c1ccccc1 | > 64.6 | 26.3 | –
9 | O=C1CN(CCCN2CCOCC2)CC(=O)N2Cc3ccccc3CN12 | > 200 | > 200 | –
10 | N#CC(/C=C/c1ccccc1)Nc1ccccc1 (stereo not given) | > 22.4 | > 22.4 | –
11 | CCCCCC1CC=CC(NC(=O)OCc2ccccc2)C1/C=C/C(=O)CCCCCOC(=O)c1ccc(Br)cc1 (stereo not given) | – | – | inactive
12 | O=C1CSC(=Nc2ccccc2)N1c1ncccn1 | > 47.9 | > 47.9 | –
13 | O=C1Sc2ccccc2C(=O)N2CSCC12 (stereo not given) | – | > 200 | inactive
14 | CC1CC[C@]2(C(=O)O)CCC3(COC(=O)/C=C\c4ccc(O)cc4)C(=CCC4[C@@]5(C)CC[C@H](O)C(C)(C)C5CC[C@]43C)[C@@H]2[C@H]1C (stereo not given in full) | > 41.7 | 11 | –
15 | CCC[N+](C)(C)CCCNC(=O)c1c(O)c2ccccc2[nH]c1=O | 178 | 182 | –
16 | CCOP(=O)(OCC)C(Cc1c[nH]c2ccccc12)C(=O)O (stereo not given) | > 200 | > 200 | –
17 | COc1cc(C)cc2c1C(=O)C(Br)(Br)CC2 | > 2 | 0.955 | –
18 | Nc1ncnc2c1ncn2C1CCC(COP(=O)(O)O)O1 (stereo not given) | 20 | > 200 | –
19 | O=C(O)CCCCCCCCCCCOc1ccccc1 | > 200 | 63.1 | –
20 | Cn1/c(=N\S(=O)(=O)c2ccccc2)n(S(=O)(=O)c2ccccc2)c2ccccc21 | > 200 | > 200 | –
21 | NS(=O)(=O)c1ccc(Nc2c3ccccc3nc3c(C(=O)N4CCN(CCO)CC4)cccc23)cc1 | > 43.7 | > 43.7 | –
22 | COc1cc(/C=C(\C#N)c2ccccc2)cc(OC)c1 | > 19.5 | > 19.5 | –

Row | SMILES | EC50 [µM] | IC50 [µM] | outcome
23 | CCOC(=O)NC(OCCN(C)C)(C(F)(F)F)C(F)(F)F | > 200 | > 200 | –
24 | C=C(C)C1CC2=C(O1)C(=O)c1ccccc1C2=O (stereo not given) | > 200 | 2 | –
25 | COc1cccc(/C=C2\CCc3ccccc3C2=O)c1 | > 14.5 | > 14.5 | –
26 | O=C(NO)c1ccc(OCc2cccc(Cl)c2)cc1 | > 200 | 10 | –
27 | O=NN(CCCl)C(=O)NCCCl | > 1150 | > 1150 | –
28 | N=C(N)SCc1c2ccccc2c(CSC(=N)N)c2ccccc12 | > 20 | 3.16 | –
29 | O=Cc1c2c(cc3c1CC1(C3)Cc3cc4c(c(C=O)c3C1)CCCC4)CCCC2 | > 200 | 123 | –
30 | CCc1ccccc1NC(=O)C(=O)C(C#N)c1ccccc1Cl (stereo not given) | > 380 | > 380 | –
31 | CC#CCOC(=O)c1ccccc1OC(C)=O.[C-]#[O+].[C-]#[O+].[C-]#[O+].[C-]#[O+].[C-]#[O+].[C-]#[O+].[Co].[Co] | > 200 | 7.76 | –
32 | CC(C(=O)O)/C(=C\c1ccc2c(c1)OCO2)C(=O)O (stereo not given) | – | – | inactive
33 | O=C(O)CN1CCN2CCOCCOCCN(CC1)CCN(CC(=O)O)CC2 | > 200 | 34.7 | –
34 | CC(C)(CC(O)C#N)/[N+]([O-])=[N+](\[O-])C(C)(C)CC(O)C#N (stereo not given) | – | – | inactive
35 | CS(=O)(=O)NC12CCC(c3ccccc31)c1ccccc12 | > 200 | > 200 | –
36 | COc1ccc2ccccc2c1C1OC(=O)c2ccccc21 (stereo not given) | > 46.8 | 28.8 | –
37 | CCOC(=O)[C@H]1Nc2ccc([N+](=O)[O-])cc2C2c3ccccc3CC21 (stereo not given in full) | > 11.2 | > 11.2 | –
38 | CO/C(=N\N=C\c1cccc(Cl)c1)c1ccncc1 | > 132 | 83.2 | –
39 | O=c1ccc2ccc(OP(=O)(O)O)cc2o1 | > 200 | > 200 | –
40 | CCCC(O)c1cn(-c2cccc(S(=O)(=O)O)c2)nn1 (stereo not given) | > 832 | > 832 | –
41 | Oc1cc(O)c(C2c3ccc(O)cc3OC(c3ccc(O)c(O)c3)C2O)c(O)c1 (stereo not given) | > 46.8 | > 46.8 | –
42 | COc1ccc(/C=C(\C)C=O)cc1 | > 204 | > 204 | –
43 | Cc1cc2cc3n(c2nn1)N=C(Cl)CC3 | > 339 | 6.31 | –
44 | O=C(C[C@H](Cl)[C@H](NC(=O)OCc1ccccc1)C(=O)O)NO | – | – | inactive

Row | SMILES | EC50 [µM] | IC50 [µM] | outcome
45 | O=S(=O)(O)c1ccc(N=Nc2ccc(O)cc2O)cc1 | > 200 | 112 | –
46 | COc1ccc(/C=C/C(=O)c2cc(Cl)cc(Cl)c2O)cc1OC | > 200 | 1.05 | –
47 | COC(=O)C1=C(OC)C(C(=O)OC)[C@@]2(C)C(C(=O)OC)=C(OC)C(C(=O)OC)[C@@]12C (stereo not given in full) | > 417 | > 417 | –
48 | COC(=O)C(CCC#N)(CCC#N)C(=O)OC | > 21.9 | > 21.9 | –
49 | CC(CCc1ccccc1)NCC(O)n1c(/N=N/N(C)C)nc2c1c(=O)n(C)c(=O)n2C (stereo not given) | > 200 | > 200 | –
50 | CCOC(=O)N1CCN(c2c(C)nc(C)[nH]c2=O)CC1 | > 200 | > 200 | –
51 | O=C1C=CC(=O)c2c1ccc1c3ccccc3n(CCCCCCCCn3c4ccccc4c4ccc5c(c43)C(=O)C=CC5=O)c21 | > 100 | 52.5 | –
52 | CN=c1ss/c(=N\C(=S)N(C)C)n1C | – | – | inactive
53 | C=C1[C@@H]2CC[C@@]3([C@@H](C2)[C@@]24CCC[C@@]5(C)CN(CCO)[C@@H]2O[C@@H]3C[C@H]54)[C@@H]1O | – | – | inactive
54 | COc1cc(-c2cc(=O)c3c(OC)c(OC)c(OC)c(OC)c3o2)cc(OC)c1OC | > 200 | 28.2 | –
55 | O=c1[nH]nc(Nc2ccccc2)c2nnn(Cc3ccccc3)c12 | – | – | inactive
56 | CCOP(=O)(O)CN1CCNCCN(CP(=O)(O)OCC)CCNCC1 | > 100 | > 100 | –
57 | COc1cc([N+](=O)[O-])c(S(=O)(=O)O)cc1-[n+]1nc(C(=O)Nc2ccccc2)nn1-c1ccc([N+](=O)[O-])c(S(=O)(=O)[O-])c1 | > 200 | > 200 | –
58 | O=S(Cc1ccccc1)/C(=C/NC(=S)Nc1ccccc1)c1ccccc1 (stereo not given) | 182 | > 200 | –
59 | CCCCOC(=O)C1CN2C(=NC1(C(F)(F)F)C(F)(F)F)Sc1ccccc12 (stereo not given) | – | – | inactive
60 | COC(=O)C1(C(=O)OC)N=C(C)OC1c1ccoc1 (stereo not given) | > 200 | > 200 | –
61 | CNS(=O)(=O)NNS(=O)(=O)c1ccc(Br)cc1 | > 75.9 | > 75.9 | –
62 | O=C(/C=C/c1ccccc1)c1cc2c(cc1O)OCO2 | > 70.8 | 5.25 | –
63 | C/C(CC(=O)Nc1cc(Cl)c(Cl)cc1Cl)=N\NC(N)=O | > 21.4 | 2.75 | –
64 | C1=C[C@@H]2c3ccc4cnccc4c3NC[C@@H]2C1 | > 589 | 36.3 | –

— PubChem BioAssay AID179 (DTP/NCI, 2004)
